Consider eleven compounds from patent US7964531B2, “3-phenoxy-4-pyridazinol derivatives and herbicidal composition containing the same” (Mitsui Chemicals Agro, Inc., priority 2001, dated 2011).

Common to all, as to format: in vivo
Holding throughout (details): wettable powder applied 3 days after transplanting, judged after 25 days

For one data set, the system named is Scirpus joncoides. The data set is described as follows: Test Example 1: herbicidal effects, paddy-field pot test. The procedure, abridged:
(§1)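 Greenhouse, flooded paddy soil; weeds from seed (top 1 cm), C. serotinus from germinated tubers, rice transplanted at 2.2-leaf stage. WP diluted in water, applied to pot day 3 post-transplant. Scored day 25 post-treatment, 0–5 inhibition scale.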

The test system of data set [1] is annual broad-leaved weeds (Lindernia spp., Rotala indica). The description is as above. The procedure, abridged:
as §1

In a further data set the test system is Cyperus serotinus. The description is as above. The procedure, abridged:
as §1

Data set [2] relates to barnyardgrass (Echinochloa oryzicola Vasing.). The data set is described as above. The procedure, abridged: as §1
Data set [3] has as its system transplanted paddy-field rice. In words: Test Example 1: crop injury against transplanted paddy-field rice. In outline: as §1

For the compound `Oc1cc(Cl)nnc1Oc1c(C2CC2)ccc2ccoc12` [Example 311], the “Herbicidal effects Scirpus joncoides” value in the data set with Scirpus joncoides (chemical dosage 10 g/a) was 4 (Growth inhibition rate; 71 to 90%); with Scirpus joncoides (chemical dosage 20 g/a), 5 (Growth inhibition rate; 91 to 100%). The “Herbicidal effects Broad leaf” value in data set [1] (chemical dosage 10 g/a) and in data set [1] (chemical dosage 20 g/a) was 5 (Growth inhibition rate; 91 to 100%) throughout. For the same compound, the “Herbicidal effects Cyperus serotinus” value in the data set with Cyperus serotinus (chemical dosage 10 g/a) was 4 (Growth inhibition rate; 71 to 90%); in the data set on Cyperus serotinus (chemical dosage 20 g/a), 5 (Growth inhibition rate; 91 to 100%). The “Herbicidal effects Barnyard grass” value in data set [2] (chemical dosage 10 g/a) is reported as 1 (Growth inhibition rate; 11 to 30%); in data set [2] (chemical dosage 20 g/a), 3 (Growth inhibition rate; 51 to 70%). The “Crop injury against transplanted rice” value in data set [3] (chemical dosage 10 g/a) and in data set [3] (chemical dosage 20 g/a) was 0 (Growth inhibition rate; 0 to 10%) each time.

`CC1COc2cccc(Oc3nnc(Cl)cc3O)c21` (stereo not drawn) [Example 182]: the “Herbicidal effects Scirpus joncoides” value in the data set with Scirpus joncoides (chemical dosage 20 g/a) was 4 (Growth inhibition rate; 71 to 90%). Moreover, in data set [1] (chemical dosage 20 g/a), the “Herbicidal effects Broad leaf” value is recorded as 5 (Growth inhibition rate; 91 to 100%). In the data set on Cyperus serotinus (chemical dosage 20 g/a), the “Herbicidal effects Cyperus serotinus” value is listed as 5 (Growth inhibition rate; 91 to 100%). In addition, the “Herbicidal effects Barnyard grass” value in data set [2] (chemical dosage 20 g/a) is reported as 2 (Growth inhibition rate; 31 to 50%). Moreover, the “Crop injury against transplanted rice” value in data set [3] (chemical dosage 20 g/a) is listed as 0 (Growth inhibition rate; 0 to 10%).

Consider `Cc1cc(C)c(Oc2nnc(Cl)cc2O)c(C)c1` [Example 317], for which the figures for the “Herbicidal effects Scirpus joncoides” value in the data set with Scirpus joncoides (chemical dosage 12.5 g/a) and in the data set on Scirpus joncoides (chemical dosage 25 g/a) were 2 (Growth inhibition rate; 31 to 50%) and 3 (Growth inhibition rate; 51 to 70%), respectively. In addition, the “Herbicidal effects Broad leaf” value in data set [1] (chemical dosage 12.5 g/a) is given as 4 (Growth inhibition rate; 71 to 90%); in data set [1] (chemical dosage 25 g/a) it was 5 (Growth inhibition rate; 91 to 100%). The “Herbicidal effects Cyperus serotinus” value in the data set on Cyperus serotinus (chemical dosage 12.5 g/a) and with Cyperus serotinus (chemical dosage 25 g/a) was 5 (Growth inhibition rate; 91 to 100%) each time. Besides, the “Herbicidal effects Barnyard grass” value in data set [2] (chemical dosage 12.5 g/a) and in data set [2] (chemical dosage 25 g/a) was 0 (Growth inhibition rate; 0 to 10%) throughout. Also, the “Crop injury against transplanted rice” value in data set [3] (chemical dosage 12.5 g/a) was 0 (Growth inhibition rate; 0 to 10%); in data set [3] (chemical dosage 25 g/a), 1 (Growth inhibition rate; 11 to 30%).

On to `O=[N+]([O-])c1ccc(S(=O)(=O)Oc2cc(Cl)nnc2Oc2ccccc2C2CC2)cc1` [Example 394], for which the “Herbicidal effects Scirpus joncoides” value in the data set with Scirpus joncoides (chemical dosage 10 g/a) is recorded as 4 (Growth inhibition rate; 71 to 90%); in the data set on Scirpus joncoides (chemical dosage 20 g/a), 5 (Growth inhibition rate; 91 to 100%). Moreover, the “Herbicidal effects Broad leaf” value in data set [1] (chemical dosage 10 g/a) and in data set [1] (chemical dosage 20 g/a) was 5 (Growth inhibition rate; 91 to 100%) throughout. Moreover, the “Herbicidal effects Cyperus serotinus” value in the data set with Cyperus serotinus (chemical dosage 10 g/a) and in the data set on Cyperus serotinus (chemical dosage 20 g/a) was 5 (Growth inhibition rate; 91 to 100%) throughout. The entries for the “Herbicidal effects Barnyard grass” value in data set [2] (chemical dosage 10 g/a) and in data set [2] (chemical dosage 20 g/a) were 2 (Growth inhibition rate; 31 to 50%) and 3 (Growth inhibition rate; 51 to 70%), respectively. In addition, the “Crop injury against transplanted rice” value in data set [3] (chemical dosage 10 g/a) and in data set [3] (chemical dosage 20 g/a) was 0 (Growth inhibition rate; 0 to 10%) throughout.

Consider `CC(C)c1ccccc1Oc1nnc(Cl)cc1O` [Example 57], for which the “Herbicidal effects Scirpus joncoides” value is given as 3 (Growth inhibition rate; 51 to 70%) with Scirpus joncoides (chemical dosage 12.5 g/a) and 4 (Growth inhibition rate; 71 to 90%) with Scirpus joncoides (chemical dosage 25 g/a). Besides, the “Herbicidal effects Broad leaf” value in data set [1] (chemical dosage 12.5 g/a) and in data set [1] (chemical dosage 25 g/a) was 5 (Growth inhibition rate; 91 to 100%) throughout. For the same compound, the “Herbicidal effects Cyperus serotinus” value in the data set with Cyperus serotinus (chemical dosage 12.5 g/a) and in the data set with Cyperus serotinus (chemical dosage 25 g/a) was 5 (Growth inhibition rate; 91 to 100%) each time. In addition, the “Herbicidal effects Barnyard grass” value in data set [2] (chemical dosage 12.5 g/a) and in data set [2] (chemical dosage 25 g/a) was 2 (Growth inhibition rate; 31 to 50%) each time. In addition, the “Crop injury against transplanted rice” value in data set [3] (chemical dosage 12.5 g/a) and in data set [3] (chemical dosage 25 g/a) was 0 (Growth inhibition rate; 0 to 10%) throughout.

`Cc1ccc(C2CC2)c(Oc2nnc(Cl)cc2O)c1` [Example 218]: the “Herbicidal effects Scirpus joncoides” value in the data set with Scirpus joncoides (chemical dosage 10 g/a) and in the data set on Scirpus joncoides (chemical dosage 20 g/a) was 5 (Growth inhibition rate; 91 to 100%) in each case. Moreover, the “Herbicidal effects Broad leaf” value in data set [1] (chemical dosage 10 g/a) and in data set [1] (chemical dosage 20 g/a) was 5 (Growth inhibition rate; 91 to 100%) each time. The “Herbicidal effects Cyperus serotinus” value in the data set with Cyperus serotinus (chemical dosage 10 g/a) and in the data set on Cyperus serotinus (chemical dosage 20 g/a) was 5 (Growth inhibition rate; 91 to 100%) each time. Further, the results for the “Herbicidal effects Barnyard grass” value in data set [2] (chemical dosage 10 g/a) and in data set [2] (chemical dosage 20 g/a) were 0 (Growth inhibition rate; 0 to 10%) and 1 (Growth inhibition rate; 11 to 30%), respectively. Moreover, the “Crop injury against transplanted rice” value in data set [3] (chemical dosage 10 g/a) and in data set [3] (chemical dosage 20 g/a) was 0 (Growth inhibition rate; 0 to 10%) in each case.

On to `CC1CC1c1ccccc1Oc1nnc(Cl)cc1O` (stereo not drawn) [Example 72], for which the “Herbicidal effects Scirpus joncoides” value in the data set with Scirpus joncoides (chemical dosage 10 g/a) and in the data set on Scirpus joncoides (chemical dosage 20 g/a) was 5 (Growth inhibition rate; 91 to 100%) each time. The “Herbicidal effects Broad leaf” value in data set [1] (chemical dosage 10 g/a) and in data set [1] (chemical dosage 20 g/a) was 5 (Growth inhibition rate; 91 to 100%) throughout. Besides, the “Herbicidal effects Cyperus serotinus” value in the data set on Cyperus serotinus (chemical dosage 10 g/a) is recorded as 4 (Growth inhibition rate; 71 to 90%); with Cyperus serotinus (chemical dosage 20 g/a) it was 5 (Growth inhibition rate; 91 to 100%). In addition, the “Herbicidal effects Barnyard grass” value in data set [2] (chemical dosage 10 g/a) and in data set [2] (chemical dosage 20 g/a) was 3 (Growth inhibition rate; 51 to 70%) in each case. In addition, the “Crop injury against transplanted rice” value in data set [3] (chemical dosage 10 g/a) and in data set [3] (chemical dosage 20 g/a) was 0 (Growth inhibition rate; 0 to 10%) in each case.

Turning to `Cc1ccccc1Oc1nnc(Cl)cc1OS(C)(=O)=O` [Example 356], the entries for the “Herbicidal effects Scirpus joncoides” value with Scirpus joncoides (chemical dosage 10 g/a) and with Scirpus joncoides (chemical dosage 20 g/a) were 3 (Growth inhibition rate; 51 to 70%) and 5 (Growth inhibition rate; 91 to 100%), respectively. Further, the “Herbicidal effects Broad leaf” value in data set [1] (chemical dosage 10 g/a) was 4 (Growth inhibition rate; 71 to 90%); in data set [1] (chemical dosage 20 g/a), 5 (Growth inhibition rate; 91 to 100%). In addition, the “Herbicidal effects Cyperus serotinus” value in the data set with Cyperus serotinus (chemical dosage 10 g/a) and in the data set with Cyperus serotinus (chemical dosage 20 g/a) was 5 (Growth inhibition rate; 91 to 100%) each time. Also, the results for the “Herbicidal effects Barnyard grass” value in data set [2] (chemical dosage 10 g/a) and in data set [2] (chemical dosage 20 g/a) were 2 (Growth inhibition rate; 31 to 50%) and 3 (Growth inhibition rate; 51 to 70%), respectively. For the same compound, the “Crop injury against transplanted rice” value in data set [3] (chemical dosage 10 g/a) and in data set [3] (chemical dosage 20 g/a) was 0 (Growth inhibition rate; 0 to 10%) throughout.

Regarding `CCOC(=O)Oc1cc(Cl)nnc1Oc1ccccc1C1CC1` [Example 347], the “Herbicidal effects Scirpus joncoides” value in the data set with Scirpus joncoides (chemical dosage 10 g/a) and with Scirpus joncoides (chemical dosage 20 g/a) was 5 (Growth inhibition rate; 91 to 100%) in each case. For the same compound, the “Herbicidal effects Broad leaf” value in data set [1] (chemical dosage 10 g/a) and in data set [1] (chemical dosage 20 g/a) was 5 (Growth inhibition rate; 91 to 100%) throughout. Besides, the “Herbicidal effects Cyperus serotinus” value with Cyperus serotinus (chemical dosage 10 g/a) and in the data set with Cyperus serotinus (chemical dosage 20 g/a) was 5 (Growth inhibition rate; 91 to 100%) in each case. Further, the “Herbicidal effects Barnyard grass” value is listed as 3 (Growth inhibition rate; 51 to 70%) in data set [2] (chemical dosage 10 g/a) and 4 (Growth inhibition rate; 71 to 90%) in data set [2] (chemical dosage 20 g/a). Also, the “Crop injury against transplanted rice” value in data set [3] (chemical dosage 10 g/a) and in data set [3] (chemical dosage 20 g/a) was 0 (Growth inhibition rate; 0 to 10%) each time.

`CCCS(=O)(=O)Oc1cc(Cl)nnc1Oc1ccccc1C1CC1` [Example 360]: the “Herbicidal effects Scirpus joncoides” value in the data set with Scirpus joncoides (chemical dosage 10 g/a) and in the data set with Scirpus joncoides (chemical dosage 20 g/a) was 5 (Growth inhibition rate; 91 to 100%) in each case. The “Herbicidal effects Broad leaf” value in data set [1] (chemical dosage 10 g/a) and in data set [1] (chemical dosage 20 g/a) was 5 (Growth inhibition rate; 91 to 100%) throughout. Besides, the “Herbicidal effects Cyperus serotinus” value in the data set with Cyperus serotinus (chemical dosage 10 g/a) and in the data set on Cyperus serotinus (chemical dosage 20 g/a) was 5 (Growth inhibition rate; 91 to 100%) throughout. Further, the “Herbicidal effects Barnyard grass” value in data set [2] (chemical dosage 10 g/a) is 3 (Growth inhibition rate; 51 to 70%); in data set [2] (chemical dosage 20 g/a), 4 (Growth inhibition rate; 71 to 90%). Further, the “Crop injury against transplanted rice” value in data set [3] (chemical dosage 10 g/a) and in data set [3] (chemical dosage 20 g/a) was 0 (Growth inhibition rate; 0 to 10%) throughout.

On to `O=C(Oc1cc(Cl)nnc1Oc1ccccc1C1CC1)c1ccccc1` [Example 329], for which the “Herbicidal effects Scirpus joncoides” value in the data set on Scirpus joncoides (chemical dosage 10 g/a) and with Scirpus joncoides (chemical dosage 20 g/a) was 5 (Growth inhibition rate; 91 to 100%) throughout. The “Herbicidal effects Broad leaf” value in data set [1] (chemical dosage 10 g/a) and in data set [1] (chemical dosage 20 g/a) was 5 (Growth inhibition rate; 91 to 100%) in each case. The “Herbicidal effects Cyperus serotinus” value in the data set on Cyperus serotinus (chemical dosage 10 g/a) and in the data set with Cyperus serotinus (chemical dosage 20 g/a) was 5 (Growth inhibition rate; 91 to 100%) each time. The “Herbicidal effects Barnyard grass” value in data set [2] (chemical dosage 10 g/a) is 2 (Growth inhibition rate; 31 to 50%); in data set [2] (chemical dosage 20 g/a) it was 4 (Growth inhibition rate; 71 to 90%). Further, the “Crop injury against transplanted rice” value in data set [3] (chemical dosage 10 g/a) and in data set [3] (chemical dosage 20 g/a) was 0 (Growth inhibition rate; 0 to 10%) each time.
